Data set [1] is described as follows: Physical stability of solid forms (general statements, accelerated and long term stability testing). The format is physicochemical. Conditions: conditions not stated; listed as sodium salt Form J. The text has this: Developing novel forms of compound (I) with good processability or acceptable aqueous solubility is one of the objectives of current invention. Some novel solid forms enhance the developability of compound (I) fundamentally. The physical stability of drug substances is an integral part of the systematic approach to the stability evaluation of pharmaceuticals due to its potential impacts on drug chemical stability performance and safety. The greater the stability is, the longer the shelf life could be. Therefore, the accelerated and long term stability testing used in this invention could be used to predict shelf lives.

A short description of data set [2]: In vivo PK study. The text has this: (§1) Therefore, sodium salt Form J is suitable to be formulated as sustained-release oral formulation. […] Therefore, sodium salt Form J could be developed as enteric release formulations to avoid conversion in SGF and achieve higher solubility in intestinal environment for better absorption.
The nature of data set [3]: Apparent solubility study in pH buffers (50 mM), 25° C., 24 hours, HPLC. The format is physicochemical. Conditions: for Solubility: 25° C., 24 hours; for Solubility / Final pH: listed as Example 15, sodium salt Form J of compound (I); for Final pH: after 24 hours. Here is the method: Apparent solubility was determined by suspending 5 mg of compound (I) in different bio-relevant media including pH buffers (50 mM). The suspensions were equilibrated at 25° C. for 24 hours. The suspensions were then filtered through a 0.22 μm PVDF filter into a 2-mL HPLC vial. The quantification of the filtrate was conducted by HPLC with reference to a standard solution.

The nature of data set [4]: Apparent solubility in FaSSIF over time. The format is physicochemical.
From the text: as §1

Data set [5] in a line: Conversion of solid form in SGF. The format is physicochemical.
From the text: as §1

A short description of data set [6]: Stability of solid forms, stability chamber 40° C. and 75%-RH, XRPD after 1 month. The format is physicochemical. Conditions: 40° C./75%-RH. The procedure: 40 mg of compound (I) in different solid forms were stored in a stability chamber with temperature and humidity controlled at 40° C. and 75%-RH, respectively. After 1 month, the samples were analyzed by XRPD to check their solid form and compared with their initial solid form.

For the compound `CCOC(=O)C1=C(CN2CCN3C(=O)N(CC(C)(C)C(=O)O)C[C@@H]3C2)NC(c2nccs2)=N[C@H]1c1cccc(F)c1C` [Form J, 3-[(8aS)-7-[[(4S)-5-ethoxycarbonyl-4-(3-fluoro-2-methyl-phenyl)-2-thiazol-2-yl-1,4-dihydropyrimidin-6-yl]methyl]-3-oxo-5,6,8,8a-tetrahydro-1H-imidazo[1,5-a]pyrazin-2-yl]-2,2-dimethyl-propanoic acid], the “Physical / solid state stability” value in data set [1] is given as “improved stability compared with Form D”. Besides, in data set [2], the “Absorption rate to reach Cmax” value is reported as “much slower absorption rate to reach Cmax”. Further, the “Solubility compared with other crystal forms of the parent compound (I)” value in data set [3] is on record as “improved solubility compared with some of other crystal forms”. For the same compound, the Solubility (commonly the dissolved amount per volume that the medium holds) was 1510 µg/mL in data set [3] (pH 1 buffer); 16 µg/mL in data set [3] (pH 3 buffer); 2.8 µg/mL in data set [3] (pH 5 buffer); 690 µg/mL in data set [3] (pH 7 buffer); greater than 10000 µg/mL in data set [3] (pH 9 buffer). The “Final pH” value in data set [3] (pH 1 buffer) came to 1.12; in data set [3] (pH 3 buffer), 3.53; in data set [3] (pH 5 buffer) it was 5.22; in data set [3] (pH 7 buffer) it was 7.34; in data set [3] (pH 9 buffer) it was 8.80. In data set [3] (pH7 and pH9), the “Solubility compared with Form A” value is “higher solubility than Form A at pH7 and pH9”. Besides, the “Apparent solubility in FaSSIF” value in data set [4] was “increased with time”. Also, the “Solid form conversion” value in data set [5] is on record as “converted to HCl salt immediately”. Further, the “Solid form stability compared with Form D” value in data set [6] is reported as “better solid form stability than the original Form D”. For the same compound, in data set [6] (listed as Example 15, sodium salt Form J of compound (I)), the “Physical stability (solid form by XRPD)” value was “no solid form change”.
